The values below are quoted from earlier work in patent US12102751B2, “Positive pressure inhaler for delivery of inhalable medication and methods for use” (priority 2019, dated 2024).

SMILES strings stand for the structures.

For data set [1] the following is noted: after vaping.

Regarding `C=C(C)[C@@H]1CCC(C)=C[C@H]1c1c(O)cc(CCCCC)cc1O` [CBD, Cannabidiol], in data set [1], the “time after which plasma concentration falls” value was 22 min and the “time at which plasma concentration reaches maximum strength” value was 6 min.

For `CCCCCc1cc(O)c2c(c1)OC(C)(C)[C@@H]1CCC(C)=C[C@@H]21` [THC, tetrahydrocannabinol], the “solubility in most organic solvents” value (most organic solvents, specifically lipids and alcohols) is recorded as “good”. For the same molecule, for the setting “water”, the solubility in water result was “very low”. In addition, in data set [1], the “time after which plasma concentration falls” value is 22 min and the “time at which plasma concentration reaches maximum strength” value was 6 min.
